Experimental data taken from BindingDB's records for patent US20240335431 (Acerta Pharma, 2024).

What follows are compounds tested against T1, Muscarinic acetylcholine receptor M2 (Homo sapiens, UniProt P08172) (assay: Muscarinic M2 Receptor Binding Assay).
T1 sequence (P08172 whole entry): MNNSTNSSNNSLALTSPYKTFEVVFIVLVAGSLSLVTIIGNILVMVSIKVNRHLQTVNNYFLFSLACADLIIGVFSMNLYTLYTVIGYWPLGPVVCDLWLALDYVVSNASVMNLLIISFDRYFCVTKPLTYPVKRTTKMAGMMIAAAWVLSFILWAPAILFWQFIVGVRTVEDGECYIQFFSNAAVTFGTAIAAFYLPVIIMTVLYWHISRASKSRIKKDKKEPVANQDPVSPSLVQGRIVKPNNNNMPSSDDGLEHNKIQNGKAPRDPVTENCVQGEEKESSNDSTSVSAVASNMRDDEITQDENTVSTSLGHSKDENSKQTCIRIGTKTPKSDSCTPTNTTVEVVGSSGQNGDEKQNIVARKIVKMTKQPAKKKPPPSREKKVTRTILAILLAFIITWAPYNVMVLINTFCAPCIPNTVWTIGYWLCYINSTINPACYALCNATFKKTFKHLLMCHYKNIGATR
Protocol: Cell membrane homogenates (60 μg protein) were incubated for 60 minutes at 22° C. with 2 nM [3H]AF-DX 384 in the absence or presence of the test compound in a buffer containing 50 mM Tris-HCl (pH 7.4), 120 mM NaCl, 5 mM KCl, 5 mM MgCl2, and 1 mM EDTA. Nonspecific binding was determined in the presence of 1 μM atropine. Following incubation, the samples were filtered rapidly under vacuum through glass fiber filters (GF/B, Packard) presoaked with 0.3% PEI and rinsed several times with ice-cold 50 mM Tris-HCl using a 96-sample cell harvester (Unifilter, Packard). The filters were dried then counted for radioactivity in a scintillation counter (Topcount, Packard) using a scintillation cocktail (Microscint 0, Packard). The results were expressed as a percent inhibition of the control radioligand specific binding, from which the Ki was calculated. Data were analyzed using software developed at Cerep (Hill software) and validated by comparison with data generated by the commercial software SigmaPlot 4.0 for Windows ( 1997 by SPSS Inc.).

| Structure (SMILES) | Ki [nM] |
| --- | --- |
| CCN(C(=O)c1cc(F)ccc1-n1c(C)c(C(=O)C2CCN(C(=O)[C@H]3NC[C@@H]4C[C@@H]43)CC2)c2ccncc21)C(C)C (single isomer, unassigned) [US20240335431, Example 48-1] | 6700 |

The compounds below were run against T2, Menin (Homo sapiens, UniProt O00255) (assay: Fluorescence Polarization (FP) Assay).
T2 sequence (O00255 whole entry): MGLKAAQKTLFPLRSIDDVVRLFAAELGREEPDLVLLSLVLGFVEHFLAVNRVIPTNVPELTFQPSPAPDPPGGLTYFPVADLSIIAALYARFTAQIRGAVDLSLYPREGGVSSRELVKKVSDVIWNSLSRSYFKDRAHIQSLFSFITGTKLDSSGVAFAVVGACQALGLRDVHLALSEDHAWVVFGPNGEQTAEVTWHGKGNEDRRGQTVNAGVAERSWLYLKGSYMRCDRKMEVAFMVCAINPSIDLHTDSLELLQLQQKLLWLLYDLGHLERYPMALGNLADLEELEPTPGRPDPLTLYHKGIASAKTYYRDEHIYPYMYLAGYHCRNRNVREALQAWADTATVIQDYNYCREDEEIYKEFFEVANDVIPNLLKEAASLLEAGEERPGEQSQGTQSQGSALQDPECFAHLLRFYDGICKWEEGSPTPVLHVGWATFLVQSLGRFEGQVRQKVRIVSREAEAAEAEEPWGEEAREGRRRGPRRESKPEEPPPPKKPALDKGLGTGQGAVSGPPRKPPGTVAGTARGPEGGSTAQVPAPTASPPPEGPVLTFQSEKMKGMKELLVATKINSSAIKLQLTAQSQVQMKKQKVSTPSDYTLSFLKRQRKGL
Protocol: Compounds were tested in a biochemical binding assay using Menin protein at 2 nM (N6his-tev-Menin_4i80, PB-20-1459) and the substrate cRho110-Ahx-MBM1/MBM2 peptide (UbiQ, UbiQ-Q20201030; cRh110-Ahx-[…]-QRVPALLLPPG-NH2) at 1 nM.384 Low volume black plates (Corning #4514) were used. 5 μL/well compound or 3% DMSO was added at 10-fold serial dilutions in DMSO from 10 μM. 5 μL/well cRho110-Ahx-MBM1/MBM2 peptide or binding buffer (50 mM Tris pH 7.5, 50 mM NaCl, 1 mM TCEP, 0.01% BGG, 0.01% Brij-35) was added to all wells. 5 μL/well Menin protein or binding buffer (50 mM Tris pH 7.5, 50 mM NaCl, 1 mM TCEP, 0.01% BGG, 0.01% Brij-35) was added to all wells. Plates were read on an EnVision plate reader (Perkin Elmer) with excitation at 480 nm and emission at 535 nm P+S, and measured every 5 minutes for 180 minutes.

| Structure (SMILES) | IC50 [nM] |
| --- | --- |
| CCN(C(=O)c1cc(F)ccc1-n1c(C)c(C(=O)C2CCN(C(=O)[C@H]3NC[C@@H]4C[C@@H]43)CC2)c2ccncc21)C(C)C (single isomer, unassigned) [US20240335431, Example 48-1] | 1970 |
| CC(C)N(C(=O)c1cc(F)ccc1-n1cc(C(=O)C2CCN(C(=O)[C@@H]3CC4(CC4)CN3)CC2)c2ccncc21)C(C)C [US20240335431, Example 26] | 43 |
| Cc1c(C(=O)C2CCN(C(=O)[C@H]3NC[C@@H]4C[C@@H]43)CC2)c2ccncc2n1-c1ccc(F)cc1C(=O)N(C(C)C)[C@H](C)C(F)(F)F (single isomer, unassigned) [US20240335431, Example 57-1] | 33 |
| CC(C)N(C(=O)c1cc(F)ccc1-n1cc(C(=O)C2CN(C(=O)[C@H]3N[C@@H]4CC[C@H]3C4)C2)c2ccnnc21)C(C)C [US20240335431, Example 14] | 139 |
| CC(C)N(C(=O)c1cc(F)ccc1-n1cc(C(=O)C2CCN(C[C@H]3CC[C@H](NS(C)(=O)=O)CC3)CC2)c2ccncc21)C(C)C [US20240335431, Example 17] | 21 |
| CC(C)N(C(=O)c1cc(F)ccc1-n1cc(C(=O)C2CCN(C(=O)[C@H]3N[C@H]4C[C@@H]3[C@@H](F)C4)CC2)c2ccncc21)C(C)C [US20240335431, Example 22] | 25 |
| CC(C)(F)c1ncccc1-c1cc(F)ccc1-n1cc(C(=O)C2CN(C(=O)[C@H]3N[C@@H]4CC[C@H]3C4)C2)c2ccncc21 [US20240335431, Example 13] | 4 |
| CC(C)N(C(=O)c1cc(F)ccc1-n1cc(C(=O)C2CCN(C(=O)[C@H]3NC[C@@H]4CC[C@@H]43)CC2)c2ccncc21)C(C)C (relative stereo) [US20240335431, Example 25] | 27 |
| CC(C)N(C(=O)c1cc(F)ccc1-n1cc(C(=O)C2CN(C(=O)[C@H]3N[C@@H]4CC[C@H]3C4)C2)c2ccncc21)C(C)C [US20240335431, Example 5] | 18 |
| CC(C)N(C(=O)c1cc(F)ccc1-n1cc(C(=O)C2CN(C(=O)[C@H]3N[C@H]4C[C@@H]3[C@@H](F)C4)C2)c2ccncc21)C(C)C [US20240335431, Example 7] | 24 |
| C=C1C[C@@H]2CC[C@H]1[C@@H](C(=O)N1CCC(C(=O)c3cn(-c4ccc(F)cc4C(=O)N(C(C)C)C(C)C)c4cnccc34)CC1)N2 [US20240335431, Example 18] | 37 |
| Cc1c(C(=O)C2CCN(C(=O)[C@H]3NC[C@@H]4C[C@@H]43)CC2)c2ccncc2n1-c1ccc(F)cc1C(=O)N(C(C)C)C(C)C (single isomer, unassigned) [US20240335431, Example 55-1] | 1340 |
| CC(C)N(C(=O)c1cc(F)ccc1-n1cc(C(=O)C2CCN(C(=O)[C@@H]3CCC4(CC4)N3)CC2)c2ccncc21)C(C)C [US20240335431, Example 24] | 19 |
| CCN(C(=O)c1cc(F)ccc1-n1c(C)c(C(=O)C2CCN(C(=O)[C@H]3NC[C@@H]4C[C@@H]43)CC2)c2ccncc21)C(C)C [US20240335431, Example 47] | 15 |
| CC(C)N(C(=O)c1cc(F)ccc1-n1cc(C(=O)C2CCN(C(=O)[C@@H]3CCC(C)(C)N3)CC2)c2ccncc21)C(C)C [US20240335431, Example 27] | 25 |
| CCN(C(=O)c1cc(F)ccc1-n1cc(C(=O)C2CCN(C(=O)[C@H]3N[C@H]4C[C@@H]3[C@@H](F)C4)CC2)c2ccncc21)C(C)C [US20240335431, Example 30] | 17 |
| CCN(C(=O)c1cc(F)ccc1-n1c(C)c(C(=O)[C@@H]2CCN(C(=O)[C@@H]3CC[C@@H](C)N3)[C@@H](C)C2)c2ccncc21)C(C)C [US20240335431, Example 65] | 79 |
